Consider one compound from US20220241409A1, “WATER SOLUBLE ADJUVANT AND COMPOSITION CONTAINING SAME” (Sumitomo Dainippon Pharma Co., Ltd., priority 2019, published 2022).

Each structure is given as a SMILES string.

The subject of this assay is Antigen-Specific CTL. The assay is described as follows: Immune response of antigen-specific CTL for peptide and tumor cell, vaccine a (Test 11). It counts as in vivo, mouse. The procedure:
The immune response of CTL induced with a vaccine comprising the present compound in the presence of tumor cells was evaluated in the following procedure. The vaccine was administered to a HLA-A*02:01 transgenic mouse to prepare splenocyte comprising an antigen peptide-specific CTL, and the immune response was evaluated by incubating the spelenocyte in the presence of tumor cells and antigen peptides.
Specifically, vaccine a prepared like Test 6 was injected to a HLA-A*02:01 transgenic mouse intradermally at the tail base area in an amount for administering 300 μg of Compound of formula 4 per body and 225 μg of Peptide SEQ ID No. 3 per body. Or, in the step of preparing vaccine a, the compound prepared in Example 3 was added to the diluted peptide solution to prepare a vaccine, and the prepared vaccine was injected to a HLA-A*02:01 transgenic mouse intradermally at the tail base area in an amount for administering 300 μg of Compound of formula 4 per body, 225 μg of Peptide SEQ ID No. 3 per body, and 32.5 ng of the compound prepared in Example 3 per body. The administrations were done twice, which had one week interval. One week after the final administration, the mice were sacrificed with CO2 gas, and then spleens removed from the mice. A splenocyte suspension was prepared from the spleens with Complete T-cell Medium (hereinafter, CTM). The splenocytes derived from each three mice per group were mixed. The mixed splenocytes were stained with an FITC-labeled anti-CD8 antibody (BD Pharmingen) and a PE-labeled HLA tetramer (MBL) against Peptide SEQ ID NO. 1, and analyzed for peptide-specific CTLs with a flow cytometer.
The peptide (SEQ ID No. 1) solution was added to a part of the splenocyte at a final concentration of 100 μg/mL, and the cells were stood for about one hour at 37° C., 5% CO2. After excess peptides were washed out with CTM, the peptide-pulsed splenocyte and unpulsed splenocyte were mixed at a ratio of 1:10, and the mixture was seeded on a U-bottom 96 well plate at 3.85×10^5 cells/well. A cell line (hereinafter, also referred to as LLC-HHD-WT1 tumor cells) was established by stably expressing HHD [a chimeric HLA of a human MHC (HLA-A*02:01) and a mouse MHC (H-2D^b)] and antigen peptide (SEQ ID No. 1) in a mouse Lewis lung carcinoma cell line LLC as tumor cells. X-ray (50 Gy) was irradiated to the LLC-HHD-WT1 tumor cells, and then the LLC-HHD-WT1 tumor cells were cultured in the presence of a mouse recombinant IFN-γ (100 ng/mL) for about two days and washed with CTM. […] The concentration of mouse IFN-γ in the culture supernatant was measured with an ELISA kit (R&D Systems). […] 1, and analyzed for peptide-specific CTLs with a flow cytometer.

Regarding `CCCCOc1nc(N)c2[nH]c(=O)n(Cc3ccc(CN(C)CCOCCOCCOCCOCCO)cc3)c2n1` [Example 3, 6-amino-2-butoxy-9-{[4-(16-hydroxy-2-methyl-5,8,11,14-tetraoxa-2-azahexadecan-1-yl)phenyl]methyl}-7,9-dihydro-8H-purin-8-one], the “amount of IFN-γ produced from the CTL in the mixed culture, relative to vaccine a without compound” value (about three days culture with LLC-HHD-WT1 tumor cells and Peptide SEQ ID No. 1, ELISA, average of 3 wells) turned out to be 4.9 times. Further, the “difference in CTL specific to Peptide SEQ ID No. 1 versus vaccine a without compound” value (after about three days culture with LLC-HHD-WT1 tumor cells and Peptide SEQ ID No. 1) is recorded as 3.6 times. For the same compound, for the setting “before culture, flow cytometry (tetramer), 32.5 ng per body in vaccine a, twice”, the “CTLs specific to Peptide (SEQ ID No. 1) in splenocyte, relative to vaccine a without compound” value is 1.7 times. For the same compound, where the note is “splenocytes mixed with tumor cells and cultured in the presence of Peptide SEQ ID No. 1”, the “change of CTL specific to Peptide SEQ ID No. 1 on culture with tumor cells” value is “increased”.
